Source: patent US12459951B2, “Compounds that interact with RAS superfamily proteins for treatment of cancers, inflammatory diseases, rasopathies, and fibrotic disease” (SHY Therapeutics, LLC, priority 2022, dated 2025)

Test system: active/cleaved caspase 6
Assay: Cell-based caspase activation assay (western blot)
Set-up: species or system human

Measured: Caspase 6 activation

Cc1c(-c2ccn(C(C)C)n2)cn2nc(-c3nccn3C)nc(Nc3cc4n(n3)CCO4)c12 [Compound 91, N-(6-(1-Isopropyl-1H-pyrazol-3-yl)-5-methyl-2-(1-methyl-1H-imidazol-2-yl)pyrrolo[2,1-f][1,2,4]triazin-4-yl)-2,3-dihydropyrazolo[5,1-b]oxazol-6-amine]
yes: A549, after 48 hours | BT-549, after 48 hours | MiaPaca2, after 48 hours
